Assay: DSC measurement of the heat of the degradation reaction of FT
Type: physicochemical
Conditions: scanning 10° C./min., mechanic mixture FT 0.02 moles + stabilizer 0.01 moles, 0.05% of water with respect to FT, reduced heat = higher stabilization
Experimental: The stabilization of FT from the selected stabilizers was evaluated experimentally with the DSC technology.
A mechanic mixture of FT (0.02 moles) with each of the stabilizers (0.01 moles) was admixed with 0.05% of water with respect to FT.
The DCS technology used for each mixture (scanning 10° C./min.) allow to measure the reaction heat which develops after the melting peak of FT, due to the degradation reaction.
A reduced heat development indicates a higher stabilization, the amount of FT being the same.

In the case of C[C@@H]1O[C@@H]1P(=O)(O)O.NC(CO)(CO)CO [FT (single substance), Fosfomycin Tromethamol], the “reaction heat which develops after the melting peak of FT, due to the degradation reaction” value is reported as 271.03 ± 16.73 (J/g).

— patent publication US20040022866A1, “Pharmaceutical compositions with antibiotic activity” (ZAMBON GROUP S.P.A., priority 2002, published 2004)
